According to US11851410B2, “Sensors for detection of negatively charged phosphate-containing membranes and membrane components” (THE GOVERNING COUNCIL OF THE UNIVERSITY OF TORONTO, priority 2017, dated 2023):

Columns and labels:
[1] = tested on: PA vesicles; assay: Zinc metalation fluorescence experiments; format: binding
Experimental: Vesicle fluorescence intensity experiments were performed in the absence or presence of zinc(II) (trifluoromethanesulfonate salt). Unmetallated PSVue™380 (PSVue™380*) was also included for reference.
All glassware was treated with 0.1 M HCl overnight, rinsed three times with MilliQ water, and oven dried. […] The sensor-zinc solutions were then combined with PA vesicles, prepared as described above, incubated as described above and the fluorescence emission intensity was then measured as described above.
In an effort to eliminate this possibility, all glassware was acid-treated and all buffers were chelex-treated to remove any metals, and the screens were repeated with PA vesicles. For these experiments, original non-normalized FIexc values were analyzed.

[2] = tested on: WT and mutant E. coli strains; assay: Bacteria mutant strain knockout fluorimetry, E. coli; format: cell-based; details: sensor 10 μM; 10^8 CFUs/mL
Source text: (§1) Fluorescence intensities were used to calculate the excimer emission in response to bacterial strains. Measurements were averaged over two triplicates.

[3] = tested on: WT and mutant B. subtilis strains; assay: Bacteria mutant strain knockout fluorimetry, B. subtilis; format: cell-based; details: sensor 10 μM; 10^8 CFUs/mL
Source text: as §1

[4] = tested on: POPE (PE) zwitterionic vesicles; assay: Serial dilution vesicle fluorescence intensity experiments, PE vesicles; format: binding; details: sensor 25 μM (PSVue™380 1 μM), 50 mM HEPES, 5% DMSO, pH 7.5
Source text: (§2) The following equations were used for the calculations: […]

[5] = tested on: POPA (PA) negatively charged vesicles; assay: Serial dilution vesicle fluorescence intensity experiments, PA vesicles; format: binding; details: for ΔΔFI: PA vesicles, sensor 25 μM (PSVue™380 1 μM), 50 mM HEPES, 5% DMSO, pH 7.5
Source text: as §2

[6] = tested on: E. coli K-12 BW25113 cells; details: 40 μM sensor; 10^7-10^8 CFU/mL
Experimental: E. coli K-12 BW25113 cells were grown overnight in M9 minimal media and then harvested the following morning. Cells were then washed (spun at 5000 rpm for 10 min/wash) three times in buffer (50 mM HEPES, 75 mM NaCl, 1% BSA, 0.4% DMSO, pH 7.5). Cell concentrations were then determined using OD600 and cell samples were diluted to the appropriate concentrations.
Samples were run at the Flow Cytometry Facility, Medical Sciences Building, University of Toronto, on a BD LSR Fortessa X20 using the UV laser (emission: 450/50 nm) with low flow rate (15 uL sample/min) for 2 min.
Sample run using UV laser (BD LSR Fortessa X20, emission: 450/50 nm) in 50 mM HEPES, 75 mM NaCl, 1% BSA, 0.4% DMSO, pH 7.5. […] Sample run using UV laser (BD LSR Fortessa X20, emission: 450/50 nm) in 50 mM HEPES, 75 mM NaCl, 1% BSA, 0.4% DMSO, pH 7.5. […] Sample run using UV laser (BD LSR Fortessa X20, emission: 450/50 nm) in 50 mM HEPES, 75 mM NaCl, 1% BSA, 0.4% DMSO, pH 7.5. […] Sample run using UV laser (BD LSR Fortessa X20, emission: 450/50 nm) in 50 mM HEPES, 75 mM NaCl, 1% BSA, 0.4% DMSO, pH 7.5. […] Sample run using UV laser (BD LSR Fortessa X20, emission: 450/50 nm) in 50 mM HEPES, 75 mM NaCl, 1% BSA, 0.4% DMSO, pH 7.5.

[7] = tested on: DOPS (PS) negatively charged vesicles; assay: Serial dilution vesicle fluorescence intensity experiments, PS vesicles; format: binding; design: ΔΔFI: unit not given here; details: for ΔΔFI: sensor 25 μM (PSVue™380 1 μM), 50 mM HEPES, 5% DMSO, pH 7.5
Source text: as §2
It is estimated that a mammalian cell membrane is composed of 10% PS, with the majority located on the inner leaflet in the healthy state. However, during the early stages of apoptosis, this asymmetry is lost and PS becomes symmetrically distributed resulting in ˜5% of PS externalized to the outer leaflet. To address if compounds of this application could potentially be used for the detection of the PS externalization event during apoptosis, the exemplary sensors were screened against PC vesicles containing biologically-relevant levels of PS ([…]; assuming that approximately half of the lipid head groups will be exposed to the interior of the vesicle). The resulting ΔΔFI for vesicle concentrations up to 40 μM are presented in FIG. 7 and Table 1 (ΔΔFI for vesicle concentrations up to 200 μM is presented in FIG. 4).

[8] = tested on: Gram-positive bacteria (B. subtilis, B. megaterium, M. luteus, S. epidermidis); details: sensor 10 μM; λex/em 350/476 nm
Experimental: Bacteria samples were titrated from 10^8-10^10 cells/mL in a large-volume 12 well plate. Bacteria samples were added to black 384-well plates in triplicate.

[9] = tested on: E. coli K-12 BW25113 cells; assay: Proof-of-concept E. coli titration (fluorometry); format: cell-based; details: sensor 10 μM; 50 mM HEPES, 75 mM NaCl, 1% BSA, 0.4% DMSO, pH 7.5
[10] = tested on: POPG (PG) negatively charged vesicles; assay: Serial dilution vesicle fluorescence intensity experiments, PG vesicles; format: binding; details: sensor 25 μM (PSVue™380 1 μM), 50 mM HEPES, 5% DMSO, pH 7.5
Source text: as §2

[11] = tested on: DOPS (PS) negatively charged vesicles; assay: Serial dilution vesicle fluorescence intensity experiments, PS vesicles; format: binding; design: ΔΔFI: unit not given here; details: for ΔΔFI: sensor 25 μM (PSVue™380 1 μM), 50 mM HEPES, 5% DMSO, pH 7.5; remark: listed apart in the source
[12] = tested on: TOCL (CL) negatively charged vesicles; assay: Serial dilution vesicle fluorescence intensity experiments, CL vesicles; format: binding; design: ΔΔFI: unit not given here; details: sensor 25 μM (PSVue™380 1 μM), 50 mM HEPES, 5% DMSO, pH 7.5
Source text: as §2

[13] = tested on: negatively charged vesicles (PA, PS, PG, CL); assay: Vesicle fluorescence intensity experiments, all negatively charged vesicles; format: binding
Experimental: (§3) Small Unilamellar Vesicles (SUVs) were prepared by the extrusion method. Appropriate amounts of lipid in the desired proportions were weighed out to create 10 mM liposome suspensions. The lipids were then dissolved in a minimum amount of chloroform and vortexed to ensure thorough mixing. The excess solvent was then dried off under a gentle stream of nitrogen and allowed to dry overnight in a vacuum dessicator to remove any remaining traces of solvent. The resulting lipid film was then hydrated with 2 mL of HEPES buffer (50 mM HEPES, pH 7.5) for 1 h. The sample was then subjected to five cycles of freeze-thaw-vortex, cycling between liquid nitrogen and a 60° C. water bath. The resulting suspension of multilamellar vesicles (MLVs) was then extruded 25 times through a 0.1 μm polycarbonate membrane installed in a mini-extruder (Avanti Polar Lipids, Alabaster, AL) to form SUV.
10 mM stock solutions of vesicles were diluted separately to 400 μM and 80 μM in pH 7.5, 50 mM HEPES buffer. […] The sensors were dissolved to a concentration of 50 μM (from 800 μM stock solutions in 100% DMSO) in 50 mM HEPES, pH 7.5, 10% DMSO buffer. […] Fluorescence intensities measured were used to calculate the following parameters: ΔFIexc, ΔΔFIexc, ΔFImon, ΔΔFImon, ΔΔFIexc/mon and ΔΔΔFI. The following equations were used for the calculations: […]
Of these, PC and PE represented the zwitterionic vesicles; PS (−1), PA (−1), PG (−1) and CL (−2) represented the negatively charged vesicles.
(§4) The fluorescence enhancement of the excimer (ΔFIexc) species in the presence of vesicles was calculated using equation 1, which is defined as the ratio of the emission intensities of the sensor-vesicle sample and the sensor alone.

[14] = tested on: zwitterionic vesicles (PC, PE); assay: Vesicle fluorescence intensity experiments, zwitterionic vesicles; format: binding; details: sensor 25 μM; vesicles up to 200 μM; λex/em 350/476 nm
Experimental: as §3
10 mM stock solutions of vesicles were diluted separately to 400 μM and 80 μM in pH 7.5, 50 mM HEPES buffer. […] Fluorescence intensities measured were used to calculate the following parameters: ΔFIexc, ΔΔFIexc, ΔFImon, ΔΔFImon, ΔΔFIexc/mon and ΔΔΔFI. […]
as §4

[15] = tested on: camptothecin treated MOLM-13 cells; assay: Apoptosis detection by flow cytometry; format: cell-based; details: camptothecin 10 μM, 7 hrs; I-3 50 μM, PSVue™380 90.9 μM
Experimental: MOLM-13 cells were cultured in Roswell Park Memorial Institute (RPMI)-1640 Medium supplemented with 10% FCS and 1% antibiotic/antimycotic (Gibco, cat. 15240062).
MOLM-13 cells were cultured to a density of 5.0×10^5 cells/mL in regular media and transferred to 6-well tissue culture treated plates (1.0×10^6 cells/well). Treated Cells. Camptothecin (100 μL of 210 μM camptothecin in media) was added to a final concentration of 10 μM (1% DMSO final). Untreated Cells. DMSO Vehicle (100 μL DMSO in media) was added (1% DMSO final). All cells were then incubated at 37° C. for 7 hrs. […] Cell samples were then treated simultaneously with either 1) exemplary compound I-3 (in HEPES buffer, final concentration of 50 μM), and propidium iodide (0.02 μg/μL) or 2) PSVue™380 (in HEPES buffer, final concentration of 90.9 μM as previously reported^39) and propidium iodide (0.02 μg/μL). Samples were then incubated for 15 min away from light at 37° C. and were then analyzed by flow cytometry (CytoFLEX S, BeckmanCoulter) using the near UV laser (exc: 375 nm, emi: 450/45 nm) and blue laser (exc: 488 nm, emi: 585/42 nm). Gates were set off of single stain samples.

[16] = 25% PS vesicles, 20 μM vesicles
[17] = 75% PS vesicles, 20 μM vesicles
[18] = PS vesicles (50%), 5 μM vesicles
[19] = PS vesicles (50%), 20 μM vesicles
[20] = 33% CL vesicles, 20 μM vesicles
[21] = CL vesicles (50%), 5 μM vesicles
[22] = CL vesicles (50%), 20 μM vesicles

| Structure (SMILES) | ΔΔFI ([4]; 5 μM vesicles) | ΔΔFI ([4]; 20 μM vesicles) | ΔΔFI ([5]; 5 μM vesicles) | ΔΔFI ([5]; 20 μM vesicles) | ΔΔFI ([7]; 5% PS vesicles, 5 μM vesicles) | ΔΔFI ([7]; 5% PS vesicles, 20 μM vesicles) | ΔΔFI ([7]; 25% PS vesicles, 5 μM vesicles) | ΔΔFI [7, 16] | detection of Gram-positive bacteria with a fluorometer in bulk solution [8] | ΔΔFI ([10]; 5 μM vesicles) | ΔΔFI ([10]; 20 μM vesicles) | ΔΔFI ([11]; 75% PS vesicles, 5 μM vesicles) | ΔΔFI [11, 17] | ΔΔFI [11, 18] | ΔΔFI [11, 19] | ΔΔFI ([12]; 33% CL vesicles, 5 μM vesicles) | ΔΔFI [12, 20] | ΔΔFI [12, 21] | ΔΔFI [12, 22] | also measured |
| --- | --- | --- | --- | --- | --- | --- | --- | --- | --- | --- | --- | --- | --- | --- | --- | --- | --- | --- | --- | --- |
| c1cc2ccc3ccc(CCCCN4CCCNCCNCCCNCC4)c4ccc(c1)c2c34 [II-4] |  |  |  |  |  |  |  |  |  |  |  |  |  |  |  |  |  |  |  | FIexc response to increasing PA vesicle concentrations, unmetallated ([1]; acid-treated glassware, chelex-treated buffers, non-normalized FIexc): comparable responses; ability to detect PA vesicles in the absence of Zn^2+ (ΔFI) ([1]; unmetallated sensors, PA vesicles 0-200 μM): retained their ability to detect PA; fluorescence fold of mutant E. coli strains compared to WT [2]: general decrease in fluorescence fold intensity; fluorescence fold of mutant B. subtilis strains compared to WT [3]: no changes |
| c1cc2ccc3ccc(CN4CCNCCNCCNCC4)c4ccc(c1)c2c34 [I-1] | 1 | 1 | 2.9 | 9.5 | 1.3 | 2.2 | 1.5 | 2.9 | can detect Gram-positive bacteria | 2.6 | 5.4 | 3.3 | 9.4 | 2.6 | 6.6 | 2.8 | 6.6 | 3.3 | 10.6 | linear response, upper vesicle concentration for PA ([5]; 25 μM sensor): 50 µM; ΔFI with PA vesicles ([5]; 50 μM PA vesicle concentration, sensor 25 μM): 20; detection of bacteria using a flow cytometer [6]: suitable for the detection of bacteria; sensing of increasing amounts of E. coli (ΔFI, ΔΔFI) [9]: capable of sensing increasing amounts of bacteria; linear response, vesicle concentration range ([13]; 25 μM sensor): 2 to 40 µM; ΔFIexc for all negatively charged vesicles ([13]; sensor 25 μM, vesicles up to 200 μM, λex/em 350/476 nm): ≥ 5; ΔFIexc for zwitterionic vesicles [14]: ~1 |
| c1cc2ccc3ccc(CN4CCCNCCNCCCNCC4)c4ccc(c1)c2c34 [I-3] | 1 | 1 | 7.7 | 23.2 | 1.8 | 3.5 | 2.2 | 5.3 | can detect Gram-positive bacteria | 2.4 | 6.2 | 6.5 | 15.6 | 3.5 | 9.8 | 2.4 | 6 | 4.1 | 10.2 | detection of early apoptotic cells (propidium iodide co-stain) [15]: detects a population of cells, undetected by the dead cell stain propidium iodide; sensing PA compared to PSVue™380 ([5]; Table 1 comparison): superior; ΔΔFI for PA vesicles (FIG. 4) ([5]; sensor 25 μM, vesicles 0-200 μM): ~25; detection of PC vesicles containing 5 and 25% PS ([7]; 5 and 25% PS, corresponding to 2.5 and 12.5% of PS exposed to solution): efficiently detected; sensitivity compared to PSVue™380, 5 μM PS vesicles ([11]; 5 μM PS vesicles): comparable |
